Our source for the IC50 values is patent publication US11345702B1 (Myoforte Therapeutics, Inc., priority 2020, dated 2022).

Bounds are passed on as bounds.

The target in this test is 15-PGDH/HPGD (Homo sapiens (Human), UniProt P15428). The test can be described thus: hPGDH inhibitor screening biochemical assay. Conditions: read-out: hPGDH: Average IC50. Here is the method: A hydroxyprostaglandin dehydrogenase inhibition screening biochemical assay can be performed to assess the synthesized inhibitors provided herein. Provided herein is an exemplary biochemical assay for hPGDH inhibitor screening.
Sequence of 15-PGDH/HPGD (P15428 whole entry): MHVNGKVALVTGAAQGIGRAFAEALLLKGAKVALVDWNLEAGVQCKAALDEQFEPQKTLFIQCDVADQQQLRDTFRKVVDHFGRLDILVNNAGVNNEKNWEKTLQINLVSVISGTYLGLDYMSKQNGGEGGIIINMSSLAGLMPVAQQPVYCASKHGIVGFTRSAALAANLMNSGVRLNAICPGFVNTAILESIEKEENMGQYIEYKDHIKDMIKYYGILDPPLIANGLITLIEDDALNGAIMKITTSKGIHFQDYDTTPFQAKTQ
The in vitro biochemical assay can be performed in white, 384 plates in total 20 μl reaction volume consisting of 10 nM of 15-PGDH/HPGD (R&D System #5660-DH), 15 μM Prostaglandin E2 (Sigma, Cat #P5640-10MG) and 0.25 mM (3-Nicotinamide adenine dinucleotide sodium salt (Sigma, Cat #N0632-5G) made in reaction buffer (50 mM Tris-HCl, pH 7.5, 0.01% Tween 20) at 10-point dose response curve for test/tool compounds. Briefly, 5 μl (4×) of compounds solution and 5 μl (final concentration, 10 nM) of enzyme solution is added to white 384 well plates and incubated for 10 mins at 37° C. 5 μl (4×) of Prostaglandin E2 and 5 μl (4×) of β-Nicotinamide adenine dinucleotide sodium salt is added to the wells and incubated for 10 mins at room temperature. Fluorescence is recorded at ex/em=340 nm/485 nm. The percentage (%) inhibition of enzyme activity was determined relative to positive control (1% DMSO) and IC50 was calculated using GraphPad prism software (four parameter-variable slope equation).
Take `O=C(NC1(C(=O)O)CC1)c1ccc(-n2ccc3cc(C(=O)N4CCC(F)(F)CC4)cnc32)cn1` [MF-DH-430, 1-(5-(5-(4,4-difluoropiperidine-1-carbonyl)-1H-pyrrolo[2,3-b]pyridin-1-yl)picolinamido)cyclopropane-1-carboxylic acid]: the IC50 is under 100 nM.

For the molecule `CC(C)(CC(=O)O)NC(=O)c1ccc(-n2ccc3cc(C(=O)N4CCC(F)(F)CC4)cnc32)cc1` [MF-DH-431], the concentration for half-maximal inhibition (IC50) is under 100 nM.

Consider `O=C(O)[C@@H]1CCCN1C(=O)c1ccc(-n2ccc3cc(C(=O)N4CCC(F)(F)CC4)cnc32)cc1` [MF-DH-432], for which the IC50 is under 100 nM.

With `O=C(O)c1ccc(-n2ccc3cc(C(=O)N4CCCCC4)cnc32)cc1` [MF-DH-433, 4-(5-(piperidine-1-carbonyl)-1H-pyrrolo[2,3-b]pyridin-1-yl)benzoic acid], the IC50 is under 100 nM.

For the molecule `N#Cc1ccc(-n2ccc3cc(C(=O)N4CCC(F)(F)CC4)cnc32)cc1` [MF-DH-439], the IC50 was under 100 nM.

In the case of `N#Cc1ccc(-n2ccc3cc(C(=O)N4CCC(F)(F)CC4)cnc32)nc1` [MF-DH-440], the IC50 was 100 to 1000 nM.

Consider `N#Cc1ccc(-n2ccc3cc(C(=O)N4CCC(F)(F)CC4)cnc32)cc1O` [MF-DH-441], for which the IC50 was under 100 nM.

With `N#Cc1ccc(-n2cnc3cc(C(=O)N4CCC(F)(F)CC4)cnc32)cc1` [MF-DH-442], the IC50 is under 100 nM.

Take `N#Cc1ccc(-n2cnc3cc(C(=O)N4CC(Cl)C4)cnc32)cc1` [MF-DH-443]: the IC50 is under 100 nM.

As to `CC(C)(O)CCc1cc2cc(C(=O)N3CCC(F)(F)CC3)cnc2n1-c1ccc(C#N)cc1` [MF-DH-444, 4-(5-(4,4-difluoropiperidine-1-carbonyl)-2-(3-hydroxy-3-methylbutyl)-1H-pyrrolo[2,3-b]pyridin-1-yl)benzonitrile], the IC50 was under 100 nM.

Take `N#Cc1ccc(-n2c(CCC(N)=O)cc3cc(C(=O)N4CCC(F)(F)CC4)cnc32)cc1` [MF-DH-446, 3-(1-(4-cyanophenyl)-5-(4,4-difluoropiperidine-1-carbonyl)-1H-pyrrolo[2,3-b]pyridin-2-yl)propanamide]: the IC50 was in the range of 100 to 1000 nM.

For the molecule `N#Cc1ccc(-n2ccc3cc(C(=S)N4CCC(F)(F)CC4)cnc32)cc1` [MF-DH-449, 4-(5-(4,4-difluoropiperidine-1-carbonothioyl)-1H-pyrrolo[2,3-b]pyridin-1-yl)benzonitrile], the IC50 was at least 1000 nM.

In the case of `NC(=O)[C@@H]1CCCN1C(=O)c1ccc(-n2ccc3cc(C(=O)N4CCC(F)(F)CC4)cnc32)cc1` [MF-DH-450, (S)-1-(4-(5-(4,4-difluoropiperidine-1-carbonyl)-1H-pyrrolo[2,3-b]pyridin-1-yl)benzoyl)pyrrolidine-2-carboxamide], the IC50 was under 100 nM.

For `O=C(c1ccc(-n2ccc3cc(C(=O)N4CCC(F)(F)CC4)cnc32)cc1)N(CCO)CCO` [MF-DH-451], the IC50 was under 100 nM.

As to `O=C(c1cnc2c(ccn2-c2ccc(-c3noc(=O)[nH]3)nc2)c1)N1CCC(F)(F)CC1` [MF-DH-456, 3-(5-(5-(4,4-difluoropiperidine-1-carbonyl)-1H-pyrrolo[2,3-b]pyridin-1-yl)pyridin-2-yl)-1,2,4-oxadiazol-5(4H)-one], the IC50 is under 100 nM.

Consider `N#Cc1ccc(-n2ccc3nc(C(=O)N4CCC(F)CC4)ccc32)cc1` [MF-DH-462, 4-(5-(4-fluoropiperidine-1-carbonyl)-1H-pyrrolo[3,2-b]pyridin-1-yl)benzonitrile], for which the IC50 is at least 1000 nM.

As for `N#Cc1ccc(-n2ccc3cc(C(=O)N4CCC(F)CC4)ncc32)cc1` [MF-DH-463, 4-(5-(4-fluoropiperidine-1-carbonyl)-1H-pyrrolo[2,3-c]pyridin-1-yl)benzonitrile], the IC50 is at least 1000 nM.

On to `CC(C)(C#Cc1ccc(-n2ccc3cc(C(=O)N4CCC(F)(F)CC4)cnc32)cn1)S(C)(=O)=O` [MF-DH-465, (4,4-difluoropiperidin-1-yl)(1-(6-(3-methyl-3-(methylsulfonyl)but-1-yn-1-yl)pyridin-3-yl)-1H-pyrrolo[2,3-b]pyridin-5-yl)methanone], for which the IC50 was 100 to 1000 nM.
